Experimental data from US11858941B2, “Heterocyclic and heteroaryl compounds for treating Huntington's disease” (PTC THERAPEUTICS, INC., priority 2018, dated 2024).

Test system: Endogenous Huntingtin Protein
Assay: Endogenous Huntingtin Protein Assay (Meso Scale Discovery ELISA-based electrochemiluminescence)
Type: cell-based
Conditions: MSD plates coated with MW1 (expanded polyglutamine) or MAB2166 capture antibody; lysates
Method in brief: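 MSD electrochemiluminescence sandwich ELISA: MW1 (expanded polyQ) or MAB2166 capture antibody at 1 μg/mL, samples incubated overnight at 4° C. Detection with rabbit monoclonal #5656S then SULFO-TAG anti-rabbit antibody, each 0.25 μg/mL for 1 h at room temperature.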

IC50 [nM]	Structure (SMILES)
≤ 100	CC1(C)CC(n2nnc3cc(-c4ccc(-c5c[nH]nc5C#N)cc4O)nnc32)CC(C)(C)N1 [Cpd 109, 4-{3-hydroxy-4-[3-(2,2,6,6-tetramethylpiperidin-4-yl)-3H-[1,2,3]triazolo[4,5-c]pyridazin-6-yl]phenyl}-1H-pyrazole-3-carbonitrile]
100 to 500	CC1(C)CC(n2nnc3cc(-c4ccc(-c5ncc(C#N)s5)cc4O)nnc32)CC(C)(C)N1 [Cpd 110, 2-{3-hydroxy-4-[3-(2,2,6,6-tetramethylpiperidin-4-yl)-3H-[1,2,3]triazolo[4,5-c]pyridazin-6-yl]phenyl}-1,3-thiazole-5-carbonitrile]
100 to 500	CC1(C)CC(n2nnc3cc(-c4ccc(-c5c[nH]cn5)cc4O)nnc32)CC(C)(C)N1 [Cpd 115, 5-(1H-imidazol-4-yl)-2-[3-(2,2,6,6-tetramethylpiperidin-4-yl)-3H-[1,2,3]triazolo[4,5-c]pyridazin-6-yl]phenol]
≤ 100	CC1(C)CC(n2nnc3cc(-c4ccc(-c5nncs5)cc4O)nnc32)CC(C)(C)N1 [Cpd 116, 2-[3-(2,2,6,6-tetramethylpiperidin-4-yl)-3H-[1,2,3]triazolo[4,5-c]pyridazin-6-yl]-5-(1,3,4-thiadiazol-2-yl)phenol]
100 to 500	CC1(C)CC(n2nnc3cc(-c4ccc(-c5cnoc5)cc4O)nnc32)CC(C)(C)N1 [Cpd 120, 5-(1,2-oxazol-4-yl)-2-[3-(2,2,6,6-tetramethylpiperidin-4-yl)-3H-[1,2,3]triazolo[4,5-c]pyridazin-6-yl]phenol]
≤ 100	Cn1ncc(-c2ccc(-c3cc4nnn(C5CC(C)(C)NC(C)(C)C5)c4nn3)c(O)c2)c1F [Cpd 121, 5-(5-fluoro-1-methyl-1H-pyrazol-4-yl)-2-[3-(2,2,6,6-tetramethylpiperidin-4-yl)-3H-[1,2,3]triazolo[4,5-c]pyridazin-6-yl]phenol]
1000 to 3000	CCn1ncc(-c2ccc(-c3cc4nnn(C5CC(C)(C)NC(C)(C)C5)c4nn3)c(O)c2)c1F [Cpd 122, 5-(1-ethyl-5-fluoro-1H-pyrazol-4-yl)-2-[3-(2,2,6,6-tetramethylpiperidin-4-yl)-3H-[1,2,3]triazolo[4,5-c]pyridazin-6-yl]phenol]
≤ 100	Cn1cc(-c2ccc(-c3cc4nnn(C5CC(C)(C)NC(C)(C)C5)c4nn3)c(O)c2)c(Cl)n1 [Cpd 127, 5-(3-chloro-1-methyl-1H-pyrazol-4-yl)-2-[3-(2,2,6,6-tetramethylpiperidin-4-yl)-3H-[1,2,3]triazolo[4,5-c]pyridazin-6-yl]phenol]
≤ 100	CC1(C)CC(n2nnc3cc(-c4ccc(-c5c[nH]nc5Cl)cc4O)nnc32)CC(C)(C)N1 [Cpd 129, 5-(3-chloro-1H-pyrazol-4-yl)-2-[3-(2,2,6,6-tetramethylpiperidin-4-yl)-3H-[1,2,3]triazolo[4,5-c]pyridazin-6-yl]phenol]
≤ 100	Cn1cc(-c2ccc(-c3cc4nnn(C5CC(C)(C)NC(C)(C)C5)c4nn3)c(O)c2)c(F)n1 [Cpd 130, 5-(3-fluoro-1-methyl-1H-pyrazol-4-yl)-2-[3-(2,2,6,6-tetramethylpiperidin-4-yl)-3H-[1,2,3]triazolo[4,5-c]pyridazin-6-yl]phenol]
≤ 100	COc1n[nH]cc1-c1ccc(-c2cc3nnn(C4CC(C)(C)NC(C)(C)C4)c3nn2)c(O)c1 [Cpd 131, 5-(3-methoxy-1H-pyrazol-4-yl)-2-[3-(2,2,6,6-tetramethylpiperidin-4-yl)-3H-[1,2,3]triazolo[4,5-c]pyridazin-6-yl]phenol]
500 to 1000	Cn1cc(-c2ccc(-c3cc4nnn(C5CC(C)(C)NC(C)(C)C5)c4nn3)c(O)c2)c(C#N)n1 [Cpd 132, 4-{3-hydroxy-4-[3-(2,2,6,6-tetramethylpiperidin-4-yl)-3H-[1,2,3]triazolo[4,5-c]pyridazin-6-yl]phenyl}-1-methyl-1H-pyrazole-3-carbonitrile]
100 to 500	Cc1cnc(-c2ccc(-c3cc4nnn(C5CC(C)(C)NC(C)(C)C5)c4nn3)c(O)c2)s1 [Cpd 133, 5-(5-methyl-1,3-thiazol-2-yl)-2-[3-(2,2,6,6-tetramethylpiperidin-4-yl)-3H-[1,2,3]triazolo[4,5-c]pyridazin-6-yl]phenol]
≤ 100	CC1(C)CC(n2nnc3cc(-c4ccc(-c5ncns5)cc4O)nnc32)CC(C)(C)N1 [Cpd 134, 2-[3-(2,2,6,6-tetramethylpiperidin-4-yl)-3H-[1,2,3]triazolo[4,5-c]pyridazin-6-yl]-5-(1,2,4-thiadiazol-5-yl)phenol]
≤ 100	CC1(C)CC(n2nnc3cc(-c4ccc(-c5c[nH]nc5Br)cc4O)nnc32)CC(C)(C)N1 [Cpd 137, 5-(3-bromo-1H-pyrazol-4-yl)-2-[3-(2,2,6,6-tetramethylpiperidin-4-yl)-3H-[1,2,3]triazolo[4,5-c]pyridazin-6-yl]phenol]
100 to 500	Cn1cc(-c2ccc(-c3cc4nnn(C5CC(C)(C)NC(C)(C)C5)c4nn3)c(O)c2)nn1 [Cpd 138, 5-(1-methyl-1H-1,2,3-triazol-4-yl)-2-[3-(2,2,6,6-tetramethylpiperidin-4-yl)-3H-[1,2,3]triazolo[4,5-c]pyridazin-6-yl]phenol]

Second part, the compound before the results:

Structure (SMILES)	IC50 [nM]
CC1(C)CC(n2nnc3cc(-c4ccc(-c5ncco5)cc4O)nnc32)CC(C)(C)N1 [Cpd 111, 5-(1,3-oxazol-2-yl)-2-[3-(2,2,6,6-tetramethylpiperidin-4-yl)-3H-[1,2,3]triazolo[4,5-c]pyridazin-6-yl]phenol]	≤ 100
CC1(C)CC(n2nnc3cc(-c4ccc(-c5c[nH]nn5)cc4O)nnc32)CC(C)(C)N1 [Cpd 112, 2-[3-(2,2,6,6-tetramethylpiperidin-4-yl)-3H-[1,2,3]triazolo[4,5-c]pyridazin-6-yl]-5-(1H-1,2,3-triazol-4-yl)phenol]	≤ 100
COc1cc(-c2ccc(-c3cc4nnn(C5CC(C)(C)NC(C)(C)C5)c4nn3)c(O)c2)ncn1 [Cpd 113, 5-(6-methoxypyrimidin-4-yl)-2-[3-(2,2,6,6-tetramethylpiperidin-4-yl)-3H-[1,2,3]triazolo[4,5-c]pyridazin-6-yl]phenol]	≤ 100
CC1(C)CC(n2nnc3cc(-c4ccc(-c5ccnc(OC(F)F)c5)cc4O)nnc32)CC(C)(C)N1 [Cpd 114, 5-[2-(difluoromethoxy)pyridin-4-yl]-2-[3-(2,2,6,6-tetramethylpiperidin-4-yl)-3H-[1,2,3]triazolo[4,5-c]pyridazin-6-yl]phenol]	1000 to 3000
CC1(C)CC(n2nnc3cc(-c4ccc(-c5cn[nH]c5)c5nn[nH]c45)nnc32)CC(C)(C)N1 [Cpd 117, 6-[4-(1H-pyrazol-4-yl)-1H-benzotriazol-7-yl]-3-(2,2,6,6-tetramethylpiperidin-4-yl)-3H-[1,2,3]triazolo[4,5-c]pyridazine]	3000 to 9000
CC1(C)CC(n2nnc3cc(-c4ccc(-c5ccnc6[nH]ccc56)cc4O)nnc32)CC(C)(C)N1 [Cpd 118, 5-(1H-pyrrolo[2,3-b]pyridin-4-yl)-2-[3-(2,2,6,6-tetramethylpiperidin-4-yl)-3H-[1,2,3]triazolo[4,5-c]pyridazin-6-yl]phenol]	1000 to 3000
COc1nccc(-c2ccc(-c3cc4nnn(C5CC(C)(C)NC(C)(C)C5)c4nn3)c(O)c2)n1 [Cpd 119, 5-(2-methoxypyrimidin-4-yl)-2-[3-(2,2,6,6-tetramethylpiperidin-4-yl)-3H-[1,2,3]triazolo[4,5-c]pyridazin-6-yl]phenol]	100 to 500
CCOc1cc(-c2ccc(-c3cc4nnn(C5CC(C)(C)NC(C)(C)C5)c4nn3)c(O)c2)ccn1 [Cpd 123, 5-(2-ethoxypyridin-4-yl)-2-[3-(2,2,6,6-tetramethylpiperidin-4-yl)-3H-[1,2,3]triazolo[4,5-c]pyridazin-6-yl]phenol]	3000 to 9000
CCOc1cc(-c2ccc(-c3cc4nnn(C5CC(C)(C)NC(C)(C)C5)c4nn3)c(O)c2)ncn1 [Cpd 124, 5-(6-ethoxypyrimidin-4-yl)-2-[3-(2,2,6,6-tetramethylpiperidin-4-yl)-3H-[1,2,3]triazolo[4,5-c]pyridazin-6-yl]phenol]	≤ 100
CC1(C)CC(n2nnc3cc(-c4ccc(-c5ccn6nncc6c5)cc4O)nnc32)CC(C)(C)N1 [Cpd 125, 2-[3-(2,2,6,6-tetramethylpiperidin-4-yl)-3H-[1,2,3]triazolo[4,5-c]pyridazin-6-yl]-5-([1,2,3]triazolo[1,5-a]pyridin-5-yl)phenol]	100 to 500
CC1(C)CC(n2nnc3cc(-c4ccc(-c5ccn6ncnc6c5)cc4O)nnc32)CC(C)(C)N1 [Cpd 126, 2-[3-(2,2,6,6-tetramethylpiperidin-4-yl)-3H-[1,2,3]triazolo[4,5-c]pyridazin-6-yl]-5-([1,2,4]triazolo[1,5-a]pyridin-7-yl)phenol]	100 to 500
CC1(C)CC(n2nnc3cc(-c4ccc(-c5cc(=O)[nH]cn5)cc4O)nnc32)CC(C)(C)N1 [Cpd 128, 6-{3-hydroxy-4-[3-(2,2,6,6-tetramethylpiperidin-4-yl)-3H-[1,2,3]triazolo[4,5-c]pyridazin-6-yl]phenyl}pyrimidin-4(3H)-one]	≤ 100
CC1(C)CC(n2nnc3cc(-c4ccc(-c5cc(F)c6nn[nH]c6c5)cc4O)nnc32)CC(C)(C)N1 [Cpd 135, 5-(4-fluoro-1H-benzotriazol-6-yl)-2-[3-(2,2,6,6-tetramethylpiperidin-4-yl)-3H-[1,2,3]triazolo[4,5-c]pyridazin-6-yl]phenol]	≤ 100
CC1(C)CC(n2ccc3cc(-c4ncc(-c5cn[nH]c5)cc4O)nnc32)CC(C)(C)N1 [Cpd 136, 5-(1H-pyrazol-4-yl)-2-[7-(2,2,6,6-tetramethylpiperidin-4-yl)-7H-pyrrolo[2,3-c]pyridazin-3-yl]pyridin-3-ol]	≤ 100
CC1(C)CC(n2nnc3cc(-c4ccc(-c5c[nH]nc5C(F)(F)F)cc4O)nnc32)CC(C)(C)N1 [Cpd 139, 2-[3-(2,2,6,6-tetramethylpiperidin-4-yl)-3H-[1,2,3]triazolo[4,5-c]pyridazin-6-yl]-5-[3-(trifluoromethyl)-1H-pyrazol-4-yl]phenol]	100 to 500
CC1(C)CC(n2nnc3cc(-c4ncc(-c5cn[nH]c5)cc4O)nnc32)CC(C)(C)N1 [Cpd 140, 5-(1H-pyrazol-4-yl)-2-[3-(2,2,6,6-tetramethylpiperidin-4-yl)-3H-[1,2,3]triazolo[4,5-c]pyridazin-6-yl]pyridin-3-ol]	≤ 100
